Reference: patent publication US20100190794A1, “Herbicidally Active Composition” (BASF SE, priority 2007, published 2010)

Assays:
Assay in all cases: greenhouse test, pre-emergence treatment
LOLMU = type: in vivo, Lolium multiflorum; details: Use Example 21
From the text: (§1) The culture containers used were plastic pots containing loamy sand with approximately 3.0% of humus as substrate. The seeds of the test plants were sown separately for each species.
(§2) For the pre-emergence treatment, the active compounds, suspended or emulsified in water, were applied directly after sowing by means of finely distributing nozzles. The containers were irrigated gently to promote germination and growth and subsequently covered with transparent plastic hoods until the plants had rooted. This cover caused uniform germination of the test plants unless this was adversely affected by the active compounds.
(§3) Depending on the species, the plants were kept at 10-25° C. and 20-35° C., respectively. The test period extended over 2 to 4 weeks. During this time, the plants were tended and their response to the individual treatments was evaluated.
(§4) Evaluation was carried out using a scale from 0 to 100. 100 means no emergence of the plants, or complete destruction of at least the above-ground parts, and 0 means no damage or normal course of growth. Good herbicidal activity is given at values of at least 70, and very good herbicidal activity is given at values of at least 85.
(§5) The respective stated components A and B, and if appropriate, C were formulated as a 5% by weight or 10% by weight strength emulsion concentrate or a commercially available formulation of component B was used and, with addition of the amount of solvent system, introduced into the spray liquor used for applying the active compound. In the examples, the solvent used was water.
(§6) The test period extended over 20 or 21 days. During this time, the plants were tended, and their reactions to the treatment with active compound was monitored.
(§7) What was evaluated was the damage by the chemical compositions using a scale of from 0 to 100%, in comparison to the untreated control plants. 0 means no damage, and 100 means complete destruction of the plants.
(§8) In the examples below, using the method of S. R. Colby (1967) “Calculating synergistic and antagonistic responses of herbicide combinations”, Weeds 15, p. 22 ff., the value E, which is expected if the activity of the individual active compounds is only additive, was calculated.
(§9) where X=percent activity using active compound A at an application rate a; Y=percent activity using active compound B at an application rate b; E=expected activity (in %) by A+B at application rates a+b.
(§10) If the value found in experiments is higher than the value E calculated according to Colby, a synergistic effect is present.

PHACA = type: in vivo, Phalaris canariensis
From the text: as §1, §2, §3, §4, §5, §6, §7, §8, §9, §10

ECHCG = type: in vivo, Echinochloa crus-galli
From the text: as §1, §2, §3, §4, §5, §6, §7, §8, §9, §10

ALOMY = type: in vivo, Alopecurus myosuroides
From the text: as §1, §2, §3, §4, §5, §6, §7, §8, §9, §10

BRAPL = type: in vivo, Brachiaria plantaginea; details: for Herbicidal action in % after 21 days against BRAPL: Use Example 8
From the text: as §1, §2, §3, §4, §5, §6, §7, §8, §9, §10

DIGSA = type: in vivo, Digitaria sanguinalis
From the text: as §1, §2, §3, §4, §5, §6, §7, §8, §9, §10

LAMPU = type: in vivo, Lamium purpureum
From the text: as §1, §2, §3, §4, §5, §6, §7, §8, §9, §10

SETFA = type: in vivo, Setaria faberi
From the text: as §1, §2, §3, §4, §5, §6, §7, §8, §9, §10

SOLNI = type: in vivo, Solanum nigrum L.
From the text: as §1, §2, §3, §4, §5, §6, §7, §8, §9, §10

APESV = type: in vivo, Apera spica-venti
From the text: as §1, §2, §3, §4, §5, §6, §7, §8, §9, §10

SETLU = type: in vivo, Setaria glauca; details: 31.25 g/ha a.s., Use Example 14
From the text: as §1, §2, §3, §4, §5, §6, §7, §8, §9, §10

PANDI = type: in vivo, Panicum dichotomiflorum; details: Use Example 3
From the text: as §1, §2, §3
as §4, with “85. […]” for “85.”
as §6
What was evaluated was the damage by the chemical compositions using a scale of from 0 to 100%, in comparison to the untreated control plants. […]
In the examples below, using the method of S. R. Colby (1967) “Calculating synergistic and antagonistic responses of herbicide combinations”, Weeds 15, p. 22 ff., the value E, which is expected if the activity of the individual active compounds is only additive, was calculated. […]
as §10

CCHEC = type: in vivo, Cenchrus echinatus; details: Use Example 3
From the text: as §1, §2, §3, §4, §5, §6, §7, §8, §9, §10

POAAN = type: in vivo, Poa annua; details: Use Example 15
From the text: as §1, §2, §3, §4, §5, §6, §7, §8, §9, §10

[1] = 31.25 g/ha a.s., Use Example 23
[2] = 31.25 g/ha a.s., Use Example 14

With `CN1C(=O)C(Cc2ccccc2)N(C)C(=O)C1=Cc1ccccc1C#N` (racemic) [Compound I-1 (Z) (Racemate), 2-[5-benzyl-1,4-dimethyl-3,6-dioxopiperazin-2-ylidenemethyl]benzonitrile] the “Herbicidal action in % after 20 days against LOLMU” value (LOLMU; 63 g/ha a.s.) was 30%, the “Herbicidal action in % after 20 days against LOLMU” value (LOLMU; 125 g/ha a.s.) was 50% and the “Herbicidal action in % after 20 days against PHACA” value (PHACA; 125 g/ha a.s., Use Example 20) was 65%. The “Herbicidal action in % after 20 days against PHACA” value (PHACA; 250 g/ha a.s., Use Example 20) was 90%, the “Herbicidal action in % after 20 days against ECHCG” value (ECHCG; 125 g/ha a.s., Use Example 22) was 20% and the “Herbicidal action in % after 20 days against ECHCG” value (ECHCG; 125 g/ha a.s., Use Example 23) was 20%. For the same molecule, the “Herbicidal action in % after 20 days against ECHCG” value (ECHCG; 250 g/ha a.s., Use Example 22) was 70%, the “Herbicidal action in % after 20 days against ECHCG” value (ECHCG; 250 g/ha a.s., Use Example 23) was 70% and the “Herbicidal action in % after 20 days against ALOMY” value (ALOMY; 63 g/ha a.s., Use Example 21) was 30%. For the same molecule, the “Herbicidal action in % after 20 days against ALOMY” value (ALOMY; 125 g/ha a.s., Use Example 21) was 75%, the “Herbicidal action in % after 20 days against BRAPL” value (BRAPL; 125 g/ha a.s., Use Example 23) was 40% and the “Herbicidal action in % after 20 days against BRAPL” value (BRAPL; 250 g/ha a.s., Use Example 19) was 75%. The “Herbicidal action in % after 20 days against BRAPL” value (BRAPL; 250 g/ha a.s., Use Example 23) was 75%, the “Herbicidal action in % after 20 days against DIGSA” value (DIGSA; 125 g/ha a.s., Use Example 22) was 40% and the “Herbicidal action in % after 20 days against DIGSA” value (DIGSA; 125 g/ha a.s., Use Example 23) was 40%. The “Herbicidal action in % after 20 days against DIGSA” value (DIGSA; 250 g/ha a.s., Use Example 19) was 65%, the “Herbicidal action in % after 20 days against DIGSA” value (DIGSA; 250 g/ha a.s., Use Example 22) was 65% and the “Herbicidal action in % after 20 days against DIGSA” value (DIGSA; 250 g/ha a.s., Use Example 23) was 65%. The “Herbicidal action in % after 20 days against LAMPU” value (LAMPU; 63 g/ha a.s., Use Example 21) was 0%, the “Herbicidal action in % after 20 days against LAMPU” value (LAMPU; 125 g/ha a.s., Use Example 20) was 30% and the “Herbicidal action in % after 20 days against LAMPU” value (LAMPU; 125 g/ha a.s., Use Example 21) was 30%. For the same molecule, the “Herbicidal action in % after 20 days against LAMPU” value (LAMPU; 250 g/ha a.s., Use Example 20) was 80%, the “Herbicidal action in % after 20 days against SETFA” value (SETFA; 125 g/ha a.s., Use Example 22) was 75% and the “Herbicidal action in % after 20 days against SETFA” value (SETFA; 250 g/ha a.s., Use Example 19) was 85%. For the same molecule, the “Herbicidal action in % after 20 days against SETFA” value (SETFA; 250 g/ha a.s., Use Example 22) was 85%, the “Herbicidal action in % after 20 days against SOLNI” value (SOLNI; 125 g/ha a.s., Use Example 22) was 40% and the “Herbicidal action in % after 20 days against SOLNI” value (SOLNI; 125 g/ha a.s., Use Example 23) was 40%. The “Herbicidal action in % after 20 days against SOLNI” value (SOLNI; 250 g/ha a.s., Use Example 19) was 65%, the “Herbicidal action in % after 20 days against SOLNI” value (SOLNI; 250 g/ha a.s., Use Example 22) was 65% and the “Herbicidal action in % after 20 days against SOLNI” value (SOLNI; 250 g/ha a.s., Use Example 23) was 65%. For the same molecule, the “Herbicidal action in % after 20 days against APESV” value (APESV; 63 g/ha a.s., Use Example 21) was 80%, the “Herbicidal action in % after 20 days against APESV” value (APESV; 125 g/ha a.s., Use Example 20) was 90% and the “Herbicidal action in % after 20 days against APESV” value (APESV; 125 g/ha a.s., Use Example 21) was 90%. For the same molecule, the “Herbicidal action in % after 20 days against APESV” value (APESV; 250 g/ha a.s., Use Example 20) was 95%.

`CC1(C)CON(Cc2ccccc2Cl)C1=O` [Clomazon, Clomazone] was tested, and the “Herbicidal action in % after 21 days against BRAPL” value (BRAPL; 50 g/ha a.s.) was 65% and the “Herbicidal action in % after 21 days against BRAPL” value (BRAPL; 100 g/ha a.s.) was 85%.

For `COC[C@H](C)N(C(=O)CCl)c1c(C)csc1C` [Dimethenamide-P, reference compound], the “Herbicidal action in % after 20 days against ECHCG” value (ECHCG; 16 g/ha a.s., Use Example 23) was 50%, the “Herbicidal action in % after 20 days against ECHCG” value (ECHCG; [1]) was 85% and the “Herbicidal action in % after 20 days against BRAPL” value (BRAPL; 16 g/ha a.s., Use Example 23) was 40%. For the same molecule, the “Herbicidal action in % after 20 days against BRAPL” value (BRAPL; [1]) was 50%, the “Herbicidal action in % after 20 days against DIGSA” value (DIGSA; 16 g/ha a.s., Use Example 23) was 70% and the “Herbicidal action in % after 20 days against DIGSA” value (DIGSA; [2]) was 90%. The “Herbicidal action in % after 20 days against DIGSA” value (DIGSA; [1]) was 85%, the “Herbicidal action in % after 20 days against SETLU” value (SETLU) was 65% and the “Herbicidal action in % after 20 days against SETFA” value (SETFA; [2]) was 95%. The “Herbicidal action in % after 20 days against SOLNI” value (SOLNI; 16 g/ha a.s., Use Example 23) was 60% and the “Herbicidal action in % after 20 days against SOLNI” value (SOLNI; [1]) was 80%.

In the case of `CCc1cnc(C2=NC(C)(C(C)C)C(=O)N2)c(C(=O)O)c1` (centres unmarked) [Imazethapyr], the “Herbicidal action in % after 21 days against PANDI” value (PANDI; 17.5 g/ha a.s.) is reported as 95%, the “Herbicidal action in % after 21 days against PANDI” value (PANDI; 35 g/ha a.s.) is reported as 95% and the “Herbicidal action in % after 21 days against CCHEC” value (CCHEC; 17.5 g/ha a.s.) is reported as 50%. The “Herbicidal action in % after 21 days against CCHEC” value (CCHEC; 35 g/ha a.s.) was 60%.

In the case of `CC(C)c1ccc(NC(=O)N(C)C)cc1` [Isoproturon, reference compound], the “Herbicidal action in % after 20 days against PHACA” value (PHACA; 375 g/ha a.s., Use Example 4) is reported as 55%, the “Herbicidal action in % after 20 days against PHACA” value (PHACA; 750 g/ha a.s., Use Example 4) is reported as 75% and the “Herbicidal action in % after 20 days against ALOMY” value (ALOMY; 375 g/ha a.s., Use Example 4) is reported as 90%. For the same molecule, the “Herbicidal action in % after 20 days against ALOMY” value (ALOMY; 750 g/ha a.s., Use Example 4) was 98%.

For `CCC(C)(CC)c1cc(NC(=O)c2c(OC)cccc2OC)on1` [Isoxaben, reference compound], the “Herbicidal action in % after 20 days against ALOMY” value (ALOMY; 25 g/ha a.s., Use Example 15) was 0%, the “Herbicidal action in % after 20 days against ALOMY” value (ALOMY; 50 g/ha a.s., Use Example 15) was 0% and the “Herbicidal action in % after 20 days against POAAN” value (POAAN; 25 g/ha a.s.) was 0%. For the same molecule, the “Herbicidal action in % after 20 days against POAAN” value (POAAN; 50 g/ha a.s.) was 0%.
